According to patent US20230210834A1, “RNA METHYLTRANSFERASE INHIBITOR, SCREENING METHOD THEREFOR, ANTI-CANCER AGENT EFFICACY ASSESSMENT MARKER, AND KIT FOR EFFECTIVELY PREDICTING FTSJ1 INHIBITOR” (National University Corporation Okayama University, priority 2019, published 2023):

Columns and labels:
[1] = Body weight in the anti-tumor effect evaluation test; assay type: in vivo, immunodeficient mice (BALB/c-nu/nu); conditions: 20 mg/kg intraperitoneally every other day
Protocol: A cell suspension (1×10^6 cells/100 μL), in which triple-negative breast cancer cell line MDA-MB-231 was suspended in phosphate buffer (PBS, produced by FUJIFILM Wako Pure Chemical Corporation), was inoculated subcutaneously in the dorsal lumbar region of immunodeficient mice (BALB/c-nu/nu, female, 6 weeks old, purchased from Shimizu Laboratory Supplies Co., Ltd.) using a syringe with a 23 G injection needle (Terumo Corporation). After confirming that the cancer cells engrafted under the skin of the mice to form tumor tissues, and that the tumor volume reached 100 mm^3, the obtained tumor model mice were used for the following evaluation test. First, each compound for evaluation was dissolved in corn oil (produced by Sigma-Aldrich Co., LLC) and administered intraperitoneally. PVZF0024 was administered at 100 mg/kg and PVZF2001 was administered at 20 mg/kg to the tumor model mice every other day. At each administration, the tumor diameter was measured with a caliper. The tumor volume was calculated according to the following formula: V=(3.14×D×d^2)/6 (wherein V is the tumor volume, D is the tumor major axis, and d is the tumor minor axis) (Wu. et al., Clin. Cancer Res., 2013 Oct. 15; 19(20): 5699-5710).
FIGS. 1 and 2 show the antitumor effects of PVZF0024 and PVZF2001.

[2] = system: 39 types of human cancer cell lines (JFCR39); test: Cell line panel (JFCR39) cell proliferation, sulforhodamine B, GI50; assay type: cell-based
Protocol: In order to extract genes that prescribe the sensitivity and resistance with respect to the FTSJ1 inhibitors, PVZF2001 was used to proceed with the analysis with a cell line panel (JFCR39). […] The GI50 value is defined, based on the number of cells before drug exposure, as a concentration at which the increase is inhibited by 50% by drug treatment, with the increase in a sample cultured for 48 hours without drug treatment (negative control) taken as 100%. In order to extract the target gene clusters, a COMPARE analysis was first performed using gene expression and the Log GI50 values in all of the cell lines. The gene clusters of SEQ ID NOs: 14 to 28 were then identified as FTSJ1 inhibitor resistance-related genetic markers, while the gene clusters of SEQ ID NOs: 34 to 47 were identified as FTSJ1 inhibitor sensitive-related genetic markers. […] The gene clusters of SEQ ID NOs: 29 to 33 were then identified as FTSJ1 inhibitor resistance-related genetic markers, while the gene clusters of SEQ ID NOs: 48 to 56 were identified as FTSJ1 inhibitor sensitive-related genetic markers. Using these genetic markers, a database of gene expression information (TCGA) obtained from patient samples was analyzed. […] That is, the results reveal that the FTSJ1 gene expression level itself also represents sensitivity and resistance with respect to the FTSJ1 inhibitors (SEQ ID NO: 57).

MGG8 = test: Sphere-forming ability (anchorage-independent cell proliferation), MGG8; assay type: cell-based, human; conditions: MGG8 (high FTSJ1 expression), 1 week, 0-5000 nM; FIG. 4B
Protocol: To verify whether the expression analysis of these gene clusters contributes to predicting the anti-cancer effect by the FTSJ1 inhibitors, the FTSJ1 gene was actually used as an example to analyze the anti-cancer effect of the FTSJ1 inhibitor PVZF2001 on human malignant brain tumor cell lines. Human malignant brain tumor cell lines MGG4, MGG8, MGG18, MGG23 were treated with stem cell medium (Neurobasal, B-27, N-2, 20 ng/mL EGF, 20 ng/mL bFGF) containing different concentrations (0 nm, 200 nM, 500 nM, 1000 NM, 2000 NM, 5000 nM) of PVZF2001 for 1 week, and anchorage-independent cell proliferation was evaluated based on sphere-forming ability.

With `CC(C)c1cc(C(C)C)c(S(=O)(=O)CC2CC(C)(C)CC(C)(C)C2)c(C(C)C)c1` [PVZF2001] the “weight loss due to administration” value [1] was “no weight loss due to administration was observed”, the “sensitivity / resistance of cell line (Log GI50, FIG. 4A)” value ([2]; DMS114, 48 hours) was “high sensitivity” and the “sensitivity / resistance of cell line (Log GI50, FIG. 4A)” value ([2]; NCI-H23, 48 hours) was “high resistance”. For the same molecule, the “sensitivity / resistance of cell line (Log GI50, FIG. 4A)” value ([2]; NCI-H522, 48 hours) was “high sensitivity”, the “sensitivity / resistance of cell line (Log GI50, FIG. 4A)” value ([2]; SF-539, 48 hours) was “high sensitivity” and the “sensitivity / resistance of cell line (Log GI50, FIG. 4A)” value ([2]; SNB-75, 48 hours) was “high sensitivity”. The “sensitivity / resistance of cell line (Log GI50, FIG. 4A)” value ([2]; SNB-78, 48 hours) was “high resistance”, the “sensitivity / resistance of cell line (Log GI50, FIG. 4A)” value ([2]; U251, 48 hours) was “high sensitivity” and the “anchorage-independent cell proliferation (sphere-forming ability)” value (MGG8) was “showed proliferation inhibition at low concentrations”.
